Molecules are shown by their SMILES. Read-outs that look alike come from different tables or passages of the source.

This test has as its system human pancreatic cancer-derived cell line SUIT-2. The test is described as follows: Cell viability (CellTiter Glo, intracellular ATP) of SUIT-2 in combination with cisplatin or oxaliplatin. It is filed as cell-based. Conditions: for viability at 0.0015 µM / viability at 0.0046 µM / viability at 0.0137 µM / viability at 0.0412 µM / viability at 0.1235 µM / viability at 0.3704 µM / viability at 1.1111 µM / viability at 3.3333 µM / viability at 10 µM / viability at 0.001 µM / viability at 0.003 µM / viability at 0.01 µM / viability at 0.03 µM / viability at 0.1 µM / viability at 0.3 µM / viability at 1 µM / viability at 3 µM / IC50: Homo sapiens; for viability at 0.0015 µM / viability at 0.0046 µM / viability at 0.0137 µM / viability at 0.0412 µM / viability at 0.1235 µM / viability at 0.3704 µM / viability at 1.1111 µM / viability at 3.3333 µM / viability at 10 µM / viability at 0.001 µM / viability at 0.003 µM / viability at 0.01 µM / viability at 0.03 µM / viability at 0.1 µM / viability at 0.3 µM / viability at 1 µM / viability at 3 µM: SUIT-2, 72 h, 3 days; for viability at 0.0015 µM / viability at 0.0046 µM / viability at 0.0137 µM / viability at 0.0412 µM / viability at 0.1235 µM / viability at 0.3704 µM / viability at 1.1111 µM / viability at 3.3333 µM / viability at 10 µM / viability at 0.001 µM / viability at 0.003 µM / viability at 0.01 µM / viability at 0.03 µM / viability at 0.1 µM / viability at 0.3 µM / viability at 1 µM / viability at 3 µM / combination index (CI): SUIT-2; for viability at 0.0015 µM: test substance 1.5 nM; for viability at 0.0046 µM: test substance 4.6 nM; for viability at 0.0137 µM: test substance 13.7 nM; for viability at 0.0412 µM: test substance 41.2 nM; for viability at 0.1235 µM: test substance 123.5 nM; for viability at 0.3704 µM: test substance 370.4 nM; for viability at 1.1111 µM: test substance 1111.1 nM; for viability at 3.3333 µM: test substance 3333.3 nM; for viability at 0.001 µM: test substance 1 nM; for viability at 0.003 µM: test substance 3 nM; for viability at 0.01 µM: test substance 10 nM; for viability at 0.03 µM: test substance 30 nM; for viability at 0.1 µM: test substance 100 nM; for viability at 0.3 µM: test substance 300 nM; for viability at 1 µM: test substance 1000 nM; for viability at 3 µM: test substance 3000 nM; for IC50: SUIT-2, SUIT-2, read-out: IC50 value (concentration that inhibits cell viability by 50%); for combination index (CI): CI<1 synergistic. The source says:
Evaluation of antitumor activity against human pancreatic cancer-derived cell line SUIT-2 by combination use of cisplatin and oxaliplatin
Gemcitabine (hereinafter, also referred to as Gem), cisplatin, oxaliplatin, and methanesulfonate of Compound A were used as test substances.
Gemcitabine hydrochloride (manufactured by Plantex Co., Ltd.) dissolved in dimethyl sulfoxide (DMSO) was used as gemcitabine. Cisplatin (Cat. #039-20091, manufactured by Wako Pure Chemical Industries, Ltd.) and oxaliplatin (Cat. #00372, manufactured by Tokyo Chemical Industry Co., Ltd.), each of which dissolved in serum-free RPMI-1640 medium (Cat. #11875-119, manufactured by Thermo Fisher Scientific Inc.), were used as cisplatin and oxaliplatin, respectively.
Human pancreatic cancer cell line SUIT-2 cells were subcultured in RPMI-1640 medium supplemented with 10% serum (Cat. #10437-028, manufactured by Thermo Fisher Scientific Inc.). During this test, all cell cultures were carried out in a CO2 incubator (set to 37° C. and 5% CO2, saturated with water vapor). The culture was diluted with a 10% serum-supplemented medium to a cell density of 15000 cells/well/100 μL and the cells were seeded on a 96-well plate. On the next day, the culture supernatant of each well was discarded, followed by washing twice with 150 μL of serum-free medium, and 100 μL of serum-free medium was added thereto, followed by culturing for 3 days.
The methanesulfonate of Compound A and gemcitabine were dissolved in DMSO to prepare 100 mmol/L DMSO solutions thereof. The thus-prepared DMSO solutions were diluted sequentially with DMSO to prepare DMSO solutions having a final treatment concentration of 1000-fold dilution. Cisplatin and oxaliplatin were dissolved in serum-free medium to prepare a cisplatin solution 30 μmol/L and an oxaliplatin solution 60 μmol/L, respectively. The DMSO diluted solutions of Compound A and gemcitabine were diluted with the cisplatin solution (30 μmol/L) or the oxaliplatin solution (60 μmol/L) to prepare treatment liquids having a final treatment concentration of 6-fold dilution. Compound A and gemcitabine were used with a maximum concentration of 10 μmol/L at a common ratio of 1/3 and 9 concentrations in combination with cisplatin or oxaliplatin.
20 μL of Compound A or gemcitabine diluted with the cisplatin solution (30 μmol/L) or the oxaliplatin solution (60 μmol/L) was added to each well. In addition, a group in which only a solvent containing no drug was added to wells in which cells were seeded (positive control), and a group in which only a solvent containing no drug was added to wells containing only a medium (negative control) were provided. All groups were set to n=3 well.
The cells were cultured for 3 days after the addition of the drug, and the cell viability was evaluated using a CellTiter Glo (registered trademark) Reagent (Cat. #G7570, manufactured by Promega Corporation) with the intracellular ATP level as an index. The concentration that inhibits cell viability by 50% (IC50 value) was calculated using XLFit software Ver.3 (registered trademark, manufactured by CTC Laboratory Systems Corporation).
The cell viability of each well was determined with the luminescence signal level of the negative control being 0% cell viability and the luminescence signal level of the positive control being 100% cell viability. The average value and standard deviation of the cell viability of each treatment group were calculated to prepare Table 1 and Table 2.
On the combinational effect of the embodiment of the invention, the results of evaluation using a combination index (CI) which is a quantitative index of the combinational effect are shown. The CI can be calculated by the following equation according to Cancer Research, 2010, Vol. 70, pp. 440 to 446.
That is, in a case where the drugs to be used in combination are drug 1 and drug 2, the CI at a certain drug concentration is […]

[1] abbreviates: with cisplatin 5 μmol/L, test substance 10000.0 nM.
The mark [2] stands for this setting: with oxaliplatin 10 μmol/L, test substance 10000 nM.
The mark [3] stands for this setting: used in combination with cisplatin (5 μmol/L, Table 1).
The mark [4] stands for this setting: used in combination with oxaliplatin (10 μmol/L, Table 2).

Regarding `Nc1ccn([C@@H]2O[C@H](CO)[C@@H](O)C2(F)F)c(=O)n1` [Gemcitabine], under “with cisplatin 5 μmol/L”, the viability (usually a read-out of living cells in per cent, often relative to untreated cells) at 0.0015 µM worked out at 98%; the viability at 0.0046 µM was 97%; the viability at 0.0137 µM was 99%; the viability at 0.0412 µM stood at 94%. Also, for the setting “with cisplatin 5 μmol/L”, the viability at 0.1235 µM stood at 82%, the viability at 0.3704 µM stood at 73%, the viability at 1.1111 µM came to 54% and the viability at 3.3333 µM amounted to 32%. Further, under setting [1], the viability at 10 µM stood at 22%. For the setting “with oxaliplatin 10 μmol/L”, the viability at 0.001 µM was determined as 98%, the viability at 0.003 µM is 102%, the viability at 0.01 µM was 97% and the viability at 0.03 µM came out at 97%. Also, where the note is “with oxaliplatin 10 μmol/L”, the viability at 0.1 µM was determined as 101%, the viability at 0.3 µM was 96%, the viability at 1 µM was 89% and the viability at 3 µM came to 80%. Further, the viability at 10 µM under setting [2] was 61%. For the same compound, under setting [3], the IC50 came out at 1140 nM. In addition, the IC50 under setting [4] was at least 10000 nM. For the same compound, under “combination with cisplatin”, the “combination index (CI)” value is recorded as 0.96. For the same compound, the “combination index (CI)” value (combination with oxaliplatin) is 0.97.

With `Nc1ccn([C@@H]2S[C@H](CO)[C@@H](O)[C@@H]2F)c(=O)n1` [Compound A, 1-(2-deoxy-2-fluoro-4-thio-β-D-arabinofuranosyl)cytosine], for the setting “with cisplatin 5 μmol/L”, the viability at 0.0015 µM amounted to 96%, the viability at 0.0046 µM was found to be 80%, the viability at 0.0137 µM was found to be 47% and the viability at 0.0412 µM stood at 33%. Also, where the note is “with cisplatin 5 μmol/L”, the viability at 0.1235 µM came out at 28%, the viability at 0.3704 µM came to 28%, the viability at 1.1111 µM was 26% and the viability at 3.3333 µM is 27%. For the same compound, under setting [1], the viability at 10 µM stood at 30%. In addition, for the setting “with oxaliplatin 10 μmol/L”, the viability at 0.001 µM amounted to 94%, the viability at 0.003 µM was 93%, the viability at 0.01 µM came to 87% and the viability at 0.03 µM turned out to be 60%. For the same compound, under “with oxaliplatin 10 μmol/L”, the viability at 0.1 µM was 46%, the viability at 0.3 µM stood at 41%, the viability at 1 µM amounted to 38% and the viability at 3 µM stood at 39%. Also, the viability at 10 µM under setting [2] came to 38%. In addition, the IC50 under setting [3] worked out at 12.9 nM. In addition, the IC50 under setting [4] stood at 73.4 nM. Also, for the setting “combination with cisplatin”, the “combination index (CI)” value worked out at 0.36. Further, the “combination index (CI)” value (combination with oxaliplatin) came out at 0.44.

The values are drawn from patent US20200405752A1, “ANTITUMOR AGENT, ANTITUMOR EFFECT ENHANCER, AND ANTITUMOR KIT” (FUJIFILM Corporation, priority 2018, published 2020).
